{"source": "patent US20250324971A1", "about": "“HERBICIDAL DERIVATIVES” (SYNGENTA CROP PROTECTION AG, priority 2022, published 2025)", "assay_type_in_all_cases": "in vivo", "key": {"Setaria faberi (SETFA) [1]": {"tested_on": "Setaria faberi (SETFA)", "assay": "Pre-Emergence Test (herbicidal, glasshouse pots)", "conditions": "rate 250 g/ha, evaluated after 13 days, five-point scale"}, "[2]": {"tested_on": "Amaranthus palmeri (AMAPA)", "assay": "Pre-Emergence Test (herbicidal, glasshouse pots)", "conditions": "rate 250 g/ha, evaluated after 13 days, five-point scale"}, "[3]": {"tested_on": "Amaranthus retoflexus (AMARE)", "assay": "Pre-Emergence Test (herbicidal, glasshouse pots)", "conditions": "rate 250 g/ha, evaluated after 13 days, five-point scale"}, "[4]": {"tested_on": "Ipomoea hederacea (IPOHE)", "assay": "Pre-Emergence Test (herbicidal, glasshouse pots)", "conditions": "rate 250 g/ha, evaluated after 13 days, five-point scale"}, "Zea mays (ZEAMX) [5]": {"tested_on": "Zea mays (ZEAMX)", "assay": "Pre-Emergence Test (herbicidal, glasshouse pots)", "conditions": "rate 250 g/ha, evaluated after 13 days, five-point scale"}, "[6]": {"tested_on": "Amaranthus retoflexus (AMARE)", "assay": "Post-Emergence Test (herbicidal, glasshouse pots)", "conditions": "rate 250 g/ha; evaluated after 13 days", "procedure,_shortened": "(§1)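 Percentage plant damage rated 13 days after spraying, binned 1 (0-20%) to 5 (81-100%). Application, in g/ha, used acetone/water (50:50) plus 0.5% Tween 20; pots kept under controlled glasshouse conditions (24/16 °C day/night, 14 h light, 65% humidity).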"}, "Zea mays (ZEAMX) [7]": {"tested_on": "Zea mays (ZEAMX)", "assay": "Post-Emergence Test (herbicidal, glasshouse pots)", "conditions": "rate 250 g/ha; evaluated after 13 days", "procedure,_shortened": "as §1"}, "[8]": {"tested_on": "Echinochloa crus-galli (ECHCG)", "assay": "Post-Emergence Test (herbicidal, glasshouse pots)", "conditions": "rate 250 g/ha; evaluated after 13 days", "procedure,_shortened": "as §1"}, "[9]": {"tested_on": "Amaranthus palmeri (AMAPA)", "assay": "Post-Emergence Test (herbicidal, glasshouse pots)", "conditions": "rate 250 g/ha; evaluated after 13 days", "procedure,_shortened": "as §1"}, "Setaria faberi (SETFA) [10]": {"tested_on": "Setaria faberi (SETFA)", "assay": "Post-Emergence Test (herbicidal, glasshouse pots)", "conditions": "rate 250 g/ha; evaluated after 13 days", "procedure,_shortened": "as §1"}, "[11]": {"tested_on": "Ipomoea hederacea (IPOHE)", "assay": "Post-Emergence Test (herbicidal, glasshouse pots)", "conditions": "rate 250 g/ha; evaluated after 13 days", "procedure,_shortened": "as §1"}, "[12]": {"tested_on": "Echinochloa crus-galli (ECHCG)", "assay": "Pre-Emergence Test (herbicidal, glasshouse pots)", "conditions": "rate 250 g/ha, evaluated after 13 days, five-point scale"}}}
{"smiles": "CCn1c(Oc2ccc(C)c(F)c2)cc(=O)c(C(=O)O)c1-c1ccc(C#N)c(Cl)c1", "note": "[Compound 73, 2-(3-chloro-4-cyano-phenyl)-1-ethyl-6-(3-fluoro-4-methyl-phenoxy)-4-oxo-pyridine-3-carboxylic acid]", "values": [{"measurement": "percentage damage caused to the plant, SETFA", "setting": "Setaria faberi (SETFA) [1]", "value": "5 (5=81-100%)"}, {"measurement": "percentage damage caused to the plant, AMAPA", "setting": "[2]", "value": "1 (1=0-20%)"}, {"measurement": "percentage damage caused to the plant, AMARE", "setting": "[3]", "value": "1 (1=0-20%)"}, {"measurement": "percentage damage caused to the plant, IPHOE", "setting": "[4]", "value": "4 (4=61-80%)"}, {"measurement": "percentage damage caused to the plant, ZEAMX", "setting": "Zea mays (ZEAMX) [5]", "value": "2 (2=21-40%)"}, {"measurement": "Post-Emergence Test AMARE percentage damage (five-point scale)", "setting": "[6]", "value": "1 (1=0-20%)"}, {"measurement": "Post-Emergence Test ZEAMX percentage damage (five-point scale)", "setting": "Zea mays (ZEAMX) [7]", "value": "4 (4=61-80%)"}, {"measurement": "Post-Emergence Test ECHCG percentage damage (five-point scale)", "setting": "[8]", "value": "4 (4=61-80%)"}, {"measurement": "Post-Emergence Test AMAPA percentage damage (five-point scale)", "setting": "[9]", "value": "1 (1=0-20%)"}, {"measurement": "Post-Emergence Test SETFA percentage damage (five-point scale)", "setting": "Setaria faberi (SETFA) [10]", "value": "3 (3=41-60%)"}, {"measurement": "Post-Emergence Test IPHOE percentage damage (five-point scale)", "setting": "[11]", "value": "4 (4=61-80%)"}, {"measurement": "percentage damage caused to the plant, ECHCG", "setting": "[12]", "value": "4 (4=61-80%)"}]}
{"smiles": "CCn1c(Oc2ccc(F)c(F)c2)cc(=O)c(C(=O)O)c1-c1ccc(C#N)c(Cl)c1", "note": "[Compound 76]", "values": [{"measurement": "percentage damage caused to the plant, SETFA", "setting": "Setaria faberi (SETFA) [1]", "value": "5 (5=81-100%)"}, {"measurement": "percentage damage caused to the plant, AMAPA", "setting": "[2]", "value": "2 (2=21-40%)"}, {"measurement": "percentage damage caused to the plant, AMARE", "setting": "[3]", "value": "2 (2=21-40%)"}, {"measurement": "percentage damage caused to the plant, IPHOE", "setting": "[4]", "value": "1 (1=0-20%)"}, {"measurement": "percentage damage caused to the plant, ZEAMX", "setting": "Zea mays (ZEAMX) [5]", "value": "5 (5=81-100%)"}, {"measurement": "Post-Emergence Test AMARE percentage damage (five-point scale)", "setting": "[6]", "value": "4 (4=61-80%)"}, {"measurement": "Post-Emergence Test ZEAMX percentage damage (five-point scale)", "setting": "Zea mays (ZEAMX) [7]", "value": "4 (4=61-80%)"}, {"measurement": "Post-Emergence Test ECHCG percentage damage (five-point scale)", "setting": "[8]", "value": "3 (3=41-60%)"}, {"measurement": "Post-Emergence Test AMAPA percentage damage (five-point scale)", "setting": "[9]", "value": "3 (3=41-60%)"}, {"measurement": "Post-Emergence Test SETFA percentage damage (five-point scale)", "setting": "Setaria faberi (SETFA) [10]", "value": "4 (4=61-80%)"}, {"measurement": "Post-Emergence Test IPHOE percentage damage (five-point scale)", "setting": "[11]", "value": "4 (4=61-80%)"}, {"measurement": "percentage damage caused to the plant, ECHCG", "setting": "[12]", "value": "4 (4=61-80%)"}]}
